Measurements taken from ChEMBL document CHEMBL3868610, “Novel bicyclo[3.1.0]hexane analogs as antagonists of metabotropic glutamate 2/3 receptors for the treatment of depression” (Bioorg Med Chem Lett, 2016).
Converted amounts (≈) assume the structure as drawn. The source made the active and inactive calls. The rule behind the calls is not given here.

Columns and labels:
[1] = target: T1, Metabotropic glutamate receptor 2 (Homo sapiens, UniProt Q14416); assay: Displacement of [3H]-LY459477 from human mGlu2 receptor expressed in hamster AV12 cell membranes co-expressing human EAAT1 after 90 mins by liquid scintillation counting method
Target sequence in this assay (Q14416 whole entry): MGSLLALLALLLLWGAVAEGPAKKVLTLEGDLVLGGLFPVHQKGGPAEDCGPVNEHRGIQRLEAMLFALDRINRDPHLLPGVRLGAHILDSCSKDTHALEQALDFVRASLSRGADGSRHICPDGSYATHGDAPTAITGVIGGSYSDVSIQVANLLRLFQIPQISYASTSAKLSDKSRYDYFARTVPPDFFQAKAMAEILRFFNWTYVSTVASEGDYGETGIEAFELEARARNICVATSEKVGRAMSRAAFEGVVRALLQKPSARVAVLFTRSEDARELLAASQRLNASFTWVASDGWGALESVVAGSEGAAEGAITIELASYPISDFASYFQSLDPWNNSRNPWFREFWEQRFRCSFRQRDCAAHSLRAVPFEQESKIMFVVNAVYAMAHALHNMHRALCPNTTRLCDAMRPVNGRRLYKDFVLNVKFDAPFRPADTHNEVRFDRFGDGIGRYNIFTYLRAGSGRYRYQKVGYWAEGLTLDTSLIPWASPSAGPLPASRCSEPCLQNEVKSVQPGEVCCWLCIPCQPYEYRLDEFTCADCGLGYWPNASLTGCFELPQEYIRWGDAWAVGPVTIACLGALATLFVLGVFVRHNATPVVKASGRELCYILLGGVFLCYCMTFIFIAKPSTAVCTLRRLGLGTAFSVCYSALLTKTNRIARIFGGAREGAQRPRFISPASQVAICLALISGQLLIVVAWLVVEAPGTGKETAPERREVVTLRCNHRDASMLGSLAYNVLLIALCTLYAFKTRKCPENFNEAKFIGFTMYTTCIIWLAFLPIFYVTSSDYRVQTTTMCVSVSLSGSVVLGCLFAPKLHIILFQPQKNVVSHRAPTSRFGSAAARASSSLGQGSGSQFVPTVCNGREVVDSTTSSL

[2] = target: T1, Metabotropic glutamate receptor 2; assay: Antagonist activity at recombinant human mGlu2 receptor expressed in hamster AV12 cells assessed as inhibition of DCG-4-inhibited forskolin-stimulated cAMP formation up to 25 uM after 20 min by HTRF assay relative to control; format: functional, cell-based
Target sequence in this assay (Q14416 19-872 limits assumed): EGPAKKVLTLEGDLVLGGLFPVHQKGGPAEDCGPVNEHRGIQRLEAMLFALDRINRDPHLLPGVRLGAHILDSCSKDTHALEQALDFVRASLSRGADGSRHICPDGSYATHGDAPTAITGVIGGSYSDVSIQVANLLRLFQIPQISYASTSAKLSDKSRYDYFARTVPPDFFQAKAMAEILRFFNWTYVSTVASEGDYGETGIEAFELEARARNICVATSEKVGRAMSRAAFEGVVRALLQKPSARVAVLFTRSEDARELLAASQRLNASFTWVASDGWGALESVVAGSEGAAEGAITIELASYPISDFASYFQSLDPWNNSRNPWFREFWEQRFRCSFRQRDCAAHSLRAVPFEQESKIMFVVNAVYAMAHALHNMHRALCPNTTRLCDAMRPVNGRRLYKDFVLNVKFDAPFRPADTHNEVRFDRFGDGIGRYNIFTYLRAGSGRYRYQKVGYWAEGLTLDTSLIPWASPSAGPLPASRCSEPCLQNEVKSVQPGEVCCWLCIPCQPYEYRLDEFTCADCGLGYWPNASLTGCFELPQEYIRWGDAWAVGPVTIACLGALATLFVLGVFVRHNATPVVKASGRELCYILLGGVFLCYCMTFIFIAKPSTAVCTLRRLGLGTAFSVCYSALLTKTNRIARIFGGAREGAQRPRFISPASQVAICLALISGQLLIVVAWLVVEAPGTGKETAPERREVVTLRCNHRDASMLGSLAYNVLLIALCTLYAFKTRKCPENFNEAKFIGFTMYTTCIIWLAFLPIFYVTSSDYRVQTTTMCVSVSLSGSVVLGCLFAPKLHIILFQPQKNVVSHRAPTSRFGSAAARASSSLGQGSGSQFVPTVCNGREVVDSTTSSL

[3] = test system: Rattus norvegicus; assay: Toxicity in rat assessed as NREM sleep at 3 to 10 mg/kg, ip; format: organism-based; settings: in vivo
[4] = Tmax in rat at 5 mg/kg, po; format: ADME, organism-based; settings: in vivo
[5] = target: hERG (KCNH2) (Homo sapiens, UniProt Q12809); assay: Displacement of [3H]-Astemizole from human ERG at 100 uM by membrane binding assay; settings: membranes with human ERG, probe [3H]-Astemizole
[6] = target: T2, Metabotropic glutamate receptor 3 (Homo sapiens, UniProt Q14832); assay: Agonist activity at recombinant human mGlu3 receptor expressed in hamster AV12 cells co-expressing human EAAT1 assessed as increase in forskolin-stimulated cAMP formation up to 25 uM after 20 mins by HTRF assay; format: functional, cell-based
Target sequence in this assay (Q14832 whole entry): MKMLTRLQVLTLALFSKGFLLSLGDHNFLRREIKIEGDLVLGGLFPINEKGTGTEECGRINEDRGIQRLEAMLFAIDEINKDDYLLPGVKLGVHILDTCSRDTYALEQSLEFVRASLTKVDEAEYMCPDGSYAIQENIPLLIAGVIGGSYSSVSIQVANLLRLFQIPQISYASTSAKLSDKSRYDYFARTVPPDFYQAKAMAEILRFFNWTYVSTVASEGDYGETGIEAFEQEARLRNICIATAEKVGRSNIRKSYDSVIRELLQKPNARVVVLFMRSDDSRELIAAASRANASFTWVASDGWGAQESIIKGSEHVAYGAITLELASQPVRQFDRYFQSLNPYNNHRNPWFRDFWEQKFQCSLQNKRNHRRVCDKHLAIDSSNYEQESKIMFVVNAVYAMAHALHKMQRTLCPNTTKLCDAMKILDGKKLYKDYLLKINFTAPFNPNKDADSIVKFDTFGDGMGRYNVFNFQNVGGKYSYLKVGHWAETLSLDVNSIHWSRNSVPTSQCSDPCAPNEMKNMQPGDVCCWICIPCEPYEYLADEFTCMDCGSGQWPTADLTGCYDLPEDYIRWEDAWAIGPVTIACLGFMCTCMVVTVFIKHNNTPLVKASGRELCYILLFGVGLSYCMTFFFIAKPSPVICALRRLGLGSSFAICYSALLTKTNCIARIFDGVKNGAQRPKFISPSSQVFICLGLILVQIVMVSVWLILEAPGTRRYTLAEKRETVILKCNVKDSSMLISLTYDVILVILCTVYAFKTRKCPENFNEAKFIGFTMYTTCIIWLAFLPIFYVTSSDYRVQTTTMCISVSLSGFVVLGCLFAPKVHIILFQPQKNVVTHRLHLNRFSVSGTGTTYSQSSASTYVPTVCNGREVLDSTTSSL

[7] = target: T2, Metabotropic glutamate receptor 3; assay: Antagonist activity at recombinant human mGlu3 receptor expressed in hamster AV12 cells assessed as inhibition of DCG-4-inhibited forskolin-stimulated cAMP formation up to 25 uM after 20 mins by HTRF assay relative to control; format: functional, cell-based
[8] = Unbound fraction in rat plasma at 1 uM; format: ADME, cell-free
[9] = target: Metabotropic glutamate receptor 7 (Homo sapiens, UniProt Q14831); assay: Agonist activity at recombinant human mGlu7 receptor expressed in hamster AV12 cells co-expressing human EAAT1/Galpha1s assessed as increase in Ca2+ flux by Fluo-3-AM dye based FLIPR assay; format: functional, cell-based
[10] = Volume of distribution at steady state in rat at 1 mg/kg, iv; format: ADME, organism-based; settings: in vivo, read-out: Vdss
[11] = Aqueous solubility of compound at pH 7.4; format: physicochemical; settings: aqueous medium
[12] = target: T1, Metabotropic glutamate receptor 2; assay: Agonist activity at recombinant human mGlu2 receptor expressed in hamster AV12 cells co-expressing human EAAT1 assessed as increase in forskolin-stimulated cAMP formation up to 25 uM after 20 mins by HTRF assay; format: functional, cell-based
Target sequence in this assay (Q14416 whole entry): as the sequence (Q14416 whole entry) above

[13] = Antidepressant activity in rat EEG model assessed as accumulated wake time at 10 mg/kg, ip measured over 7 hrs relative to control; format: functional, organism-based
[14] = target: Metabotropic glutamate receptor 8 (Homo sapiens, UniProt O00222); assay: Agonist activity at recombinant human mGlu8 receptor expressed in hamster AV12 cells co-expressing human EAAT1 assessed as induction of forskolin-stimulated cAMP formation after 20 mins by HTRF assay; format: functional, cell-based
[15] = target: Metabotropic glutamate receptor 5 (Homo sapiens, UniProt P41594); assay: Agonist activity at recombinant human mGlu5 receptor expressed in hamster AV12 cells co-expressing human EAAT1/Galpha1s assessed as increase in Ca2+ flux by Fluo-3-AM dye based FLIPR assay; format: functional, cell-based
[16] = Oral bioavailability in rat at 5 mg/kg; format: ADME, organism-based; settings: in vivo
[17] = Drug uptake in NIH Swiss Webster mouse brain at 3 mg/kg, ip at 30 mins; format: ADME, organism-based; settings: read-out: Drug uptake
[18] = target: CYP2D6 (Homo sapiens, UniProt P10635); assay: Inhibition of human CYP2D6 at 10 uM; format: ADME
Chain of CYP2D6 (P10635 whole entry): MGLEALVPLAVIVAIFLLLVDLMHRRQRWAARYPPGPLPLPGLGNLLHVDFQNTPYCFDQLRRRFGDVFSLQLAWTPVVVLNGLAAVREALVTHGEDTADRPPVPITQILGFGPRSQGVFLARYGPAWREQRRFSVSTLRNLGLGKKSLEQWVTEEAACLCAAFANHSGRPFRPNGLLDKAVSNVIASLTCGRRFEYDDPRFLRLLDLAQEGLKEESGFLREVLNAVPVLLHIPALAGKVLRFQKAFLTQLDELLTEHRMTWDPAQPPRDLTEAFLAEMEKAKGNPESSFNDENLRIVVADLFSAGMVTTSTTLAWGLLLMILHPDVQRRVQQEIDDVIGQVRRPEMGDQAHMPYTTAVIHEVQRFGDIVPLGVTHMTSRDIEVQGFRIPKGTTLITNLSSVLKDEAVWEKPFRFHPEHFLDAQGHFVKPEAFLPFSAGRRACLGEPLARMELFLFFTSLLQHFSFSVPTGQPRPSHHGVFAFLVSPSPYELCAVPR

Chain of Metabotropic glutamate receptor 5 (P41594 whole entry): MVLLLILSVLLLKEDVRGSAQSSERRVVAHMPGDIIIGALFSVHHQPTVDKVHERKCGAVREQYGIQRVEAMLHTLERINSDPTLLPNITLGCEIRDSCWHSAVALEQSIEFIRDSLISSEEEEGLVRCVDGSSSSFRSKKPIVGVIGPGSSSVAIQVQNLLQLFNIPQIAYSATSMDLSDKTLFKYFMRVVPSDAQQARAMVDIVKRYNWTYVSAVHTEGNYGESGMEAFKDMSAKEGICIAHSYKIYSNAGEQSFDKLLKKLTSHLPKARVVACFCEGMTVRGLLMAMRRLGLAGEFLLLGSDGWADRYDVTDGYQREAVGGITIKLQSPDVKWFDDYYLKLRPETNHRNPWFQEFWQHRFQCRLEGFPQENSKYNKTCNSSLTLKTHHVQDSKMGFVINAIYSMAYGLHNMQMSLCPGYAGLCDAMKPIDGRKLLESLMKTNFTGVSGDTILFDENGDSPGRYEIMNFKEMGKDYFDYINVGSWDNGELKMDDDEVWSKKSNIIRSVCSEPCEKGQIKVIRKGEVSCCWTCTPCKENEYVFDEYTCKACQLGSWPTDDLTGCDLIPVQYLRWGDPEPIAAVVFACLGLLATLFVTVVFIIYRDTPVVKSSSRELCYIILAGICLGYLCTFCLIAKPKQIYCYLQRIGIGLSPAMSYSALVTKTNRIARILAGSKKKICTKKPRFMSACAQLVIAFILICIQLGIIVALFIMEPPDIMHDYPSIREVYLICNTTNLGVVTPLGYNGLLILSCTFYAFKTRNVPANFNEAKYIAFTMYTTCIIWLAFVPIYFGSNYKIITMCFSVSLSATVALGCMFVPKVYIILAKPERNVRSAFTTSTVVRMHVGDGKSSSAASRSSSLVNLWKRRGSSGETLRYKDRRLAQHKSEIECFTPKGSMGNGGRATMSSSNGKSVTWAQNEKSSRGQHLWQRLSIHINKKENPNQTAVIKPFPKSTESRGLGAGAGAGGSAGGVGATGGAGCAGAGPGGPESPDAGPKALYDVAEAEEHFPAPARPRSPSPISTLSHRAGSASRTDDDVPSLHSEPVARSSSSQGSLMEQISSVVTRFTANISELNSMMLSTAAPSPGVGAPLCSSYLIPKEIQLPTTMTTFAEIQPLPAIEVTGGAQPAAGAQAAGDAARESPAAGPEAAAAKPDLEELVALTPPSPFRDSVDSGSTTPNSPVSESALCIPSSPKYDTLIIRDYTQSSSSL

N[C@]1(C(=O)O)[C@@H]2[C@@H](C(=O)O)[C@@H]2[C@H](O)[C@H]1OCc1ccc(Cl)c(Cl)c1
Ki [1]: 0.0201 µM
inhibition [2]: Active
Activity [3]: Non-Toxic
Tmax [4]: 1.67 h
inhibition at 100 µM [5]: 13%
EC50 [6]: > 25 µM
inhibition [7]: Active
fraction unbound at 1 µM [8]: > 0.4
EC50 [9]: > 25 µM
Vd [10]: 0.589 L/kg
solubility [11]: 778 µg/mL (≈ 2070 µM)
EC50 [12]: > 25 µM
TIME [13]: 0.683 h
EC50 [14]: > 50 µM
EC50 [15]: > 25 µM
F [16]: 6%
concentration at 0.5 h [17]: 248 nM
inhibition at 10 µM [18]: < 5%
